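Five concentrations, 48 hours, 96-well plates. GI50 marks 50% less growth. TGI marks complete inhibition of growth.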
Legend:
Assay in all cases: growth of human tumour cells (NCI), 48 h
[1] = tested on: TK-10 renal
[2] = tested on: CAKI-1 renal
[3] = tested on: SNB-75 CNS
[4] = tested on: UACC-257 melanoma
[5] = tested on: COLO 205 colon
[6] = tested on: SF-295 CNS
[7] = tested on: EKVX NSCLC
[8] = tested on: NCI-H522 lung

Row | SMILES | GI50 [1] | TGI [1] | GI50 [2] | TGI [2] | GI50 [3] | TGI [3] | GI50 [4] | TGI [4] | GI50 [5] | TGI [5] | GI50 [6] | TGI [6] | GI50 [7] | TGI [7] | GI50 [8] | TGI [8]
1 | Oc1c(CN2CCOCC2)cc(COCc2ccccc2)c2cccnc12 | 3.75 µM | > 100 µM | 0.555 µM | > 100 µM | 10.4 µM | > 100 µM | 2.58 µM | 7.84 µM | 16 µM | 67.2 µM | 3.68 µM | 30.6 µM | 2.88 µM | > 100 µM | 1.79 µM | 8.56 µM
2 | Cc1cc(S(=O)(=O)Nc2nc3cc(Cl)ccc3o2)c(SCc2ccccc2)cc1Cl | 25.8 µM | 55.1 µM | 22.9 µM | 49 µM | 26.1 µM | 62.2 µM | 18.4 µM | 38.4 µM | 21.2 µM | 44.1 µM | 18.7 µM | 46.1 µM | 17.8 µM | 37 µM | 17.4 µM | 40.1 µM
3 | O=C(CCl)Nc1cc(O)c2c(c1)C(=O)c1cccc(O)c1C2=O | 1.97 µM | 3.39 µM | 1.56 µM | 2.93 µM | 1.21 µM | 3.2 µM | 2.52 µM | 6.41 µM | 1.55 µM | 3.35 µM | 2.28 µM | 7.69 µM | 1.77 µM | 4.52 µM | 0.172 µM | 0.384 µM
4 | CC(C)(C)C(=O)OCc1nc2cc3c(cc2c(=O)[nH]1)CCC3=O | > 100 µM | > 100 µM | > 100 µM | > 100 µM | > 100 µM | > 100 µM | > 100 µM | > 100 µM | > 100 µM | > 100 µM | > 100 µM | > 100 µM | – | – | > 100 µM | > 100 µM
5 | O=C(Nc1cccc(C(F)(F)F)c1)c1cc(Br)cc(Br)c1O | – | 7.38 µM | – | 6.6 µM | – | > 10 µM | – | 6.93 µM | – | 9.71 µM | – | 7.19 µM | – | 8.06 µM | – | 9.82 µM
6 | O=[N+]([O-])c1cc(F)c2cccnc2c1O | 14.9 µM | > 100 µM | 3.82 µM | 25.8 µM | 4 µM | > 100 µM | 15.5 µM | 58.8 µM | 16.2 µM | 54.2 µM | 3.77 µM | 86.6 µM | 22.9 µM | > 100 µM | 4.01 µM | 26 µM
7 | O=S(=O)(O)ONC1=NCCN1 | > 100 µM | > 100 µM | > 100 µM | > 100 µM | > 100 µM | > 100 µM | > 100 µM | > 100 µM | > 100 µM | > 100 µM | > 100 µM | > 100 µM | > 100 µM | > 100 µM | > 100 µM | > 100 µM
8 | c1ccc2nc(OCCN3CC3)ccc2c1 | 4.89 µM | 23.1 µM | 9.2 µM | 28.8 µM | 16.9 µM | 35.2 µM | 16.5 µM | 32.8 µM | 1.98 µM | 5 µM | 11.6 µM | 35.4 µM | 12 µM | 33.4 µM | 1.71 µM | 4.04 µM
9 | O=C1c2ccn(CCCCN3CCC(O)CC3)c2C(=O)c2c1c(O)c1ccccc1c2O | 1.65 µM | 3.36 µM | 13.9 µM | 43.7 µM | 42.6 µM | > 61.2 µM | 17.3 µM | > 64.1 µM | 37.2 µM | > 66.2 µM | 3.25 µM | 9.69 µM | 14.5 µM | 46.5 µM | 2.86 µM | 14.4 µM
10 | O=c1c2c3c(sc2n2c(-c4ccc(Br)cc4)nnc2n1Cc1ccccc1)CCCC3 | 7.94 µM | 21.8 µM | 6.02 µM | 22.4 µM | 7.99 µM | 22.1 µM | – | 11.9 µM | 8.24 µM | 22.8 µM | 2.42 µM | 7.51 µM | 10.6 µM | 23.4 µM | – | –
11 | CCCCCCNC(=O)Oc1ccc(/C(=C(\C)c2ccccc2)c2ccc(OCCN(CC)CC)cc2)cc1 | 6.74 µM | 13.5 µM | 2.74 µM | 8.92 µM | 3.54 µM | 10.5 µM | 1.21 µM | 3.17 µM | 1.17 µM | 2.49 µM | 2.11 µM | 7.38 µM | 6.02 µM | 12.5 µM | 3.48 µM | 10.6 µM
12 | Cc1cc(O)c(C(c2ccncc2)c2c(O)cc(C)[nH]c2=O)c(=O)[nH]1 | – | > 100 µM | – | > 100 µM | – | – | – | > 100 µM | – | > 100 µM | – | > 100 µM | – | > 100 µM | – | > 100 µM
13 | N#Cc1cccc(OCc2ccccc2COc2cccc(C#N)c2)c1 | 11.8 µM | 29.5 µM | 11.1 µM | 25.1 µM | 29.7 µM | 70.4 µM | > 100 µM | > 100 µM | 33.8 µM | 98.3 µM | 5.64 µM | 20.3 µM | 28.3 µM | 69.2 µM | 98.1 µM | > 100 µM
14 | Cc1cc(O)cc2c1c(=O)c1ccccc1n2C | – | > 100 µM | – | > 100 µM | – | > 100 µM | – | > 100 µM | – | > 100 µM | – | > 100 µM | – | > 100 µM | – | > 100 µM
15 | CC(=O)N1CCN(CCOc2ccc(C3CCN(C4=Nn5c(nnc5C(F)(F)F)CC4)CC3)cc2)CC1 | 7.31 µM | > 100 µM | 3.27 µM | > 100 µM | 3.12 µM | > 100 µM | 26 µM | > 100 µM | 11.5 µM | > 70.6 µM | 12.2 µM | > 85.9 µM | 14.7 µM | > 100 µM | 5 µM | > 100 µM
16 | CCOC(=O)c1ccccc1-c1c2ccc(=[N+](C)C)cc-2oc2cc(N(C)C)ccc12 | 1.06 µM | 25.2 µM | 0.691 µM | 4.64 µM | 0.196 µM | 11 µM | 0.198 µM | 7.58 µM | 0.143 µM | 0.43 µM | 0.278 µM | 1.62 µM | 0.129 µM | > 38.9 µM | 0.306 µM | 16.4 µM
